From the NIST ThermoML archive (doi:10.1021/je800110r)
Numbers after ± are expanded uncertainties.

Conditions: 333.15 K, Liquid, Vibrating tube method

Measured: mass density

CCCCCCCCCC [decane]
709.5 ± 2 kg/m3: 11009 kPa | 11188 kPa
714.7 ± 2 kg/m3: 17071 kPa | 17136 kPa | 17168 kPa
710 ± 2 kg/m3: 11566 kPa | 11596 kPa | 11635 kPa | 11662 kPa
712.1 ± 2 kg/m3: 13913 kPa | 13929 kPa | 13965 kPa | 13981 kPa | 14010 kPa | 14027 kPa | 14106 kPa | 14140 kPa
712.8 ± 2 kg/m3: 14902 kPa
709.9 ± 2 kg/m3: 11492 kPa | 11533 kPa
709.7 ± 2 kg/m3: 11102 kPa | 11162 kPa | 11219 kPa | 11250 kPa | 11330 kPa | 11357 kPa
715.1 ± 2 kg/m3: 17542 kPa | 17593 kPa | 17626 kPa | 17656 kPa
711.7 ± 2 kg/m3: 13598 kPa | 13633 kPa | 13667 kPa | 13695 kPa | 13715 kPa
710.2 ± 2 kg/m3: 11796 kPa | 11827 kPa | 11859 kPa | 11895 kPa
712.9 ± 2 kg/m3: 14923 kPa | 15005 kPa | 15046 kPa | 15104 kPa
714 ± 2 kg/m3: 16188 kPa | 16236 kPa | 16313 kPa | 16336 kPa | 16354 kPa | 16417 kPa
708.9 ± 2 kg/m3: 10425 kPa
710.6 ± 2 kg/m3: 12115 kPa
715.6 ± 2 kg/m3: 18164 kPa | 18188 kPa | 18223 kPa | 18263 kPa | 18286 kPa
709.1 ± 2 kg/m3: 10506 kPa | 10553 kPa | 10603 kPa
711.6 ± 2 kg/m3: 13353 kPa
709.8 ± 2 kg/m3: 11277 kPa | 11304 kPa | 11398 kPa | 11428 kPa | 11460 kPa
710.5 ± 2 kg/m3: 12087 kPa
715.3 ± 2 kg/m3: 17754 kPa | 17799 kPa | 17827 kPa | 17948 kPa
713.8 ± 2 kg/m3: 15919 kPa | 15945 kPa | 15992 kPa | 16043 kPa
709.6 ± 2 kg/m3: 11035 kPa | 11073 kPa | 11132 kPa
712.3 ± 2 kg/m3: 14048 kPa | 14172 kPa | 14186 kPa | 14205 kPa | 14217 kPa
711 ± 2 kg/m3: 12857 kPa
714.8 ± 2 kg/m3: 17193 kPa | 17217 kPa | 17276 kPa | 17301 kPa | 17357 kPa
713.7 ± 2 kg/m3: 15877 kPa | 15972 kPa | 16013 kPa
711.9 ± 2 kg/m3: 13728 kPa | 13740 kPa | 13775 kPa | 13790 kPa | 13817 kPa | 13867 kPa
713.9 ± 2 kg/m3: 16061 kPa | 16084 kPa | 16108 kPa | 16129 kPa | 16147 kPa | 16212 kPa
713 ± 2 kg/m3: 14943 kPa | 15028 kPa | 15070 kPa | 15086 kPa | 15126 kPa | 15147 kPa | 15166 kPa
714.5 ± 2 kg/m3: 16858 kPa | 16983 kPa
709.2 ± 2 kg/m3: 10630 kPa | 10704 kPa | 10772 kPa
714.6 ± 2 kg/m3: 16933 kPa | 16963 kPa | 17007 kPa | 17030 kPa | 17054 kPa | 17105 kPa
715.7 ± 2 kg/m3: 18354 kPa | 18382 kPa | 18419 kPa | 18500 kPa
713.1 ± 2 kg/m3: 14961 kPa
713.2 ± 2 kg/m3: 15205 kPa | 15267 kPa
716.2 ± 2 kg/m3: 18927 kPa | 18953 kPa | 19017 kPa
716.3 ± 2 kg/m3: 18982 kPa | 19048 kPa | 19083 kPa | 19113 kPa | 19140 kPa | 19180 kPa
712 ± 2 kg/m3: 13804 kPa | 13834 kPa | 13854 kPa | 13887 kPa | 13951 kPa | 13994 kPa
715.9 ± 2 kg/m3: 18540 kPa
711.3 ± 2 kg/m3: 12983 kPa | 13020 kPa | 13085 kPa
711.8 ± 2 kg/m3: 13618 kPa | 13652 kPa | 13682 kPa | 13756 kPa
714.2 ± 2 kg/m3: 16506 kPa | 16535 kPa | 16557 kPa | 16580 kPa | 16628 kPa | 16648 kPa
710.1 ± 2 kg/m3: 11697 kPa | 11733 kPa | 11760 kPa
709 ± 2 kg/m3: 10455 kPa | 10482 kPa | 10526 kPa | 10580 kPa | 10657 kPa
713.4 ± 2 kg/m3: 15435 kPa | 15452 kPa | 15499 kPa | 15536 kPa | 15558 kPa | 15603 kPa
713.6 ± 2 kg/m3: 15666 kPa | 15721 kPa | 15741 kPa | 15784 kPa | 15804 kPa | 15827 kPa | 15859 kPa | 15898 kPa
711.5 ± 2 kg/m3: 13172 kPa | 13300 kPa
715.2 ± 2 kg/m3: 17689 kPa | 17708 kPa | 17727 kPa | 17777 kPa | 17857 kPa
710.4 ± 2 kg/m3: 11932 kPa | 11974 kPa | 12044 kPa | 12144 kPa | 12187 kPa
709.3 ± 2 kg/m3: 10677 kPa | 10743 kPa | 10828 kPa | 10856 kPa | 10884 kPa
714.3 ± 2 kg/m3: 16681 kPa | 16719 kPa | 16832 kPa
712.4 ± 2 kg/m3: 14240 kPa
711.4 ± 2 kg/m3: 13153 kPa | 13195 kPa | 13213 kPa | 13239 kPa | 13261 kPa | 13279 kPa | 13315 kPa | 13337 kPa
716 ± 2 kg/m3: 18566 kPa | 18594 kPa | 18623 kPa | 18664 kPa | 18744 kPa | 18765 kPa
714.9 ± 2 kg/m3: 17252 kPa | 17329 kPa | 17382 kPa | 17429 kPa | 17509 kPa
714.4 ± 2 kg/m3: 16599 kPa | 16700 kPa | 16749 kPa | 16769 kPa | 16806 kPa | 16882 kPa | 16913 kPa
713.3 ± 2 kg/m3: 15394 kPa | 15411 kPa | 15479 kPa
711.1 ± 2 kg/m3: 12952 kPa
712.2 ± 2 kg/m3: 14066 kPa | 14089 kPa | 14128 kPa | 14154 kPa
715 ± 2 kg/m3: 17407 kPa | 17458 kPa | 17484 kPa | 17564 kPa
713.5 ± 2 kg/m3: 15623 kPa | 15641 kPa | 15680 kPa | 15703 kPa | 15761 kPa
716.4 ± 2 kg/m3: 19216 kPa
716.1 ± 2 kg/m3: 18791 kPa | 18859 kPa | 18889 kPa
709.4 ± 2 kg/m3: 10799 kPa | 10917 kPa | 10950 kPa | 10976 kPa
715.8 ± 2 kg/m3: 18322 kPa | 18443 kPa | 18476 kPa
715.5 ± 2 kg/m3: 18002 kPa | 18053 kPa | 18089 kPa | 18117 kPa | 18145 kPa
711.2 ± 2 kg/m3: 12881 kPa | 12919 kPa | 13053 kPa
714.1 ± 2 kg/m3: 16163 kPa | 16258 kPa | 16288 kPa | 16383 kPa | 16436 kPa | 16455 kPa | 16484 kPa
715.4 ± 2 kg/m3: 17891 kPa | 17925 kPa | 17975 kPa | 18025 kPa
710.3 ± 2 kg/m3: 11998 kPa
